For one data set, the target named is T1, CYP2C9 (Homo sapiens, UniProt P11712).
T1 construct: Pooled human liver microsomes were obtained from Biopredic (Rennes, France); tissue Biopredic (Rennes, France); host or cells: pooled human liver microsomes, seventeen donors
Description: Inhibition of CYP2C9 activity (diclofenac 4′-hydroxylation) in human liver microsomes. In kind it is in vitro ADME. Conditions: HLM, diclofenac 16 µmol·L^−1, preincubation 30 min at 37 °C, Mean ± S.D. Here is the method: (§1) The following enzyme assays were performed to determine the activities of specific CYP enzymes: CYP1A2, 7-ethoxyresorufin O-deethylation; CYP2A6, coumarin 7-hydroxylation; CYP2B6, 7-ethoxy-4-(trifluoromethyl) coumarin (EFC) O-deethylation; CYP2C8 paclitaxel 6α-hydroxylation; CYP2C9, diclofenac 4′-hydroxylation; CYP2C19, diazepam N-desmethylation; CYP2D6, bufuralol 1′-hydroxylation; CYP2E1, chlorzoxazone 6-hydroxylation; and CYP3A4/5, testosterone 6β-hydroxylation. […]
(§2) For the determination of metabolites formed from specific substrates, a Prominence LC-20A HPLC system (Shimadzu, Kyoto, Japan) with UV detection or fluorescence detection was used (see Table 2). […]
(§3) Initially, for each enzyme assay, a preliminary experiment was carried out to determine Km and Vmax to obtain the appropriate concentration of the specific substrates for the inhibition experiments (the substrate concentration was chosen in the range corresponding to the value of the Km for each particular reaction). Data were analyzed using the Sigma plot software, as mentioned above, with spectral studies. […] In all cases, the inhibition of individual CYP activities was evaluated by plotting the respective remaining activity against the inhibitor concentration.
Background: Liver microsomes are vesicles of endoplasmic reticulum, rich in cytochrome P450 enzymes.

In another data set the test system is S. aureus. On the set-up: method as in doi:10.1016/j.ica.2022.121273. Conditions: Gram-positive; cited from earlier work.
In another data set the target is T2, CYP2C8 (Homo sapiens, UniProt P10632).
T2 construct: Pooled human liver microsomes were obtained from Biopredic (Rennes, France); tissue Biopredic (Rennes, France); host or cells: pooled human liver microsomes, seventeen donors
T2 sequence (P10632 1-490): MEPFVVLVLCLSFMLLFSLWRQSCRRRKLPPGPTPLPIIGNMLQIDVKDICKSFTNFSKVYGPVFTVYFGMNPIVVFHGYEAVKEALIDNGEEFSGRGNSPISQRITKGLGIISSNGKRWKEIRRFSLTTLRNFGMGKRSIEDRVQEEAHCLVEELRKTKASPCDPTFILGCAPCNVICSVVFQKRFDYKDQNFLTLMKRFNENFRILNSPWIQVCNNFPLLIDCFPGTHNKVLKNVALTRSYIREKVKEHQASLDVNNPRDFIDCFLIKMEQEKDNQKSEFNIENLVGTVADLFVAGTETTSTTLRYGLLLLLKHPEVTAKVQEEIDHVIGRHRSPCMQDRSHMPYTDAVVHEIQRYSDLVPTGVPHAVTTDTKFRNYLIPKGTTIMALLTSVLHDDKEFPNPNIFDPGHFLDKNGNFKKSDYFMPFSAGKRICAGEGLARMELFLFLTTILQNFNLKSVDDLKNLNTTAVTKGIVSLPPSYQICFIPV
Kind of data set: Inhibition of CYP2C8 activity (paclitaxel 6α-hydroxylation) in human liver microsomes. Type of data set: in vitro ADME. Particulars: HLM, paclitaxel 50 µmol·L^−1, preincubation 30 min at 37 °C, Mean ± S.D. The procedure:
as §1, §2, §3

In a further data set the test system is E. coli. On the set-up: method as in doi:10.1016/j.ica.2022.121273. Particulars: Gram-negative; cited from earlier work.
For a further data set, the system named is P. aeruginosa. On the set-up: method as in doi:10.1016/j.ica.2022.121273. Particulars: Gram-negative; cited from earlier work.
In another data set the target is T3, CYP2B6 (Homo sapiens, UniProt P20813).
T3 construct: Pooled human liver microsomes were obtained from Biopredic (Rennes, France); tissue Biopredic (Rennes, France); host or cells: pooled human liver microsomes, seventeen donors
T3 sequence (P20813 1-491): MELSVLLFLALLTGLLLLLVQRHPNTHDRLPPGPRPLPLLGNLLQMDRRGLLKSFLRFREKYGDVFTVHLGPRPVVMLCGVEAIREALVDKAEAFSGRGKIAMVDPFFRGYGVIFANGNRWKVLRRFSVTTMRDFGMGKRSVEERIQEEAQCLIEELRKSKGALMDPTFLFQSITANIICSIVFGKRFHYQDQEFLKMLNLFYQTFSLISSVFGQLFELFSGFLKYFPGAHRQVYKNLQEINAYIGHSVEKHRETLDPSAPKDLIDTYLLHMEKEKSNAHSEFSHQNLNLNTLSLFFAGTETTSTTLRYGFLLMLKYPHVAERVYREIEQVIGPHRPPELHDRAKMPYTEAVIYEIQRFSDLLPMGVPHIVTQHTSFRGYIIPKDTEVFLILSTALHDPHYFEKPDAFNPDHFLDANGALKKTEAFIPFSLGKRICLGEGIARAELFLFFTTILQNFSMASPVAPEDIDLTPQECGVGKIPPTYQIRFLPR
Description: Inhibition of CYP2B6 activity (EFC O-deethylation) in human liver microsomes. Type of data set: in vitro ADME. Particulars: HLM, EFC 15 µmol·L^−1, preincubation 30 min at 37 °C, Mean ± S.D. The procedure:
as §1, §2, §3

For a further data set, the target named is T4, CYP2A6 (Homo sapiens, UniProt P11509).
T4 construct: Pooled human liver microsomes were obtained from Biopredic (Rennes, France); tissue Biopredic (Rennes, France); host or cells: pooled human liver microsomes, seventeen donors
T4 sequence (P11509 1-494): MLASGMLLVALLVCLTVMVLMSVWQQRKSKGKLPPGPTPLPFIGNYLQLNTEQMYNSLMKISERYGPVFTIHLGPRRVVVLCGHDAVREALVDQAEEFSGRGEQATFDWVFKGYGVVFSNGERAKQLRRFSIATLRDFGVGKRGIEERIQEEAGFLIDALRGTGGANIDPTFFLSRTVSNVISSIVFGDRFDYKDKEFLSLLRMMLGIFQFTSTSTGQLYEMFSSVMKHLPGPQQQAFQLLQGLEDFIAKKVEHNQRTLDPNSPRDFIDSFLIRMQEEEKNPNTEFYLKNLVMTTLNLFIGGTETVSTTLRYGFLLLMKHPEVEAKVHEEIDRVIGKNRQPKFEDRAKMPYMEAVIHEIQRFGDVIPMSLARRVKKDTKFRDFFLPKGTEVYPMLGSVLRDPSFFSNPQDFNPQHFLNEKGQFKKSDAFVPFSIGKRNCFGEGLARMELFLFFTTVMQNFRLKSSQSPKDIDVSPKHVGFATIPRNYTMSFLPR
Kind of data set: Inhibition of CYP2A6 activity (coumarin 7-hydroxylation) in human liver microsomes. In kind it is in vitro ADME. Particulars: HLM, coumarin 15 µmol·L^−1, preincubation 30 min at 37 °C, Mean ± S.D. The procedure: as §1, §2, §3

Each structure is given as a SMILES string.

T1 sequence (P11712 whole entry): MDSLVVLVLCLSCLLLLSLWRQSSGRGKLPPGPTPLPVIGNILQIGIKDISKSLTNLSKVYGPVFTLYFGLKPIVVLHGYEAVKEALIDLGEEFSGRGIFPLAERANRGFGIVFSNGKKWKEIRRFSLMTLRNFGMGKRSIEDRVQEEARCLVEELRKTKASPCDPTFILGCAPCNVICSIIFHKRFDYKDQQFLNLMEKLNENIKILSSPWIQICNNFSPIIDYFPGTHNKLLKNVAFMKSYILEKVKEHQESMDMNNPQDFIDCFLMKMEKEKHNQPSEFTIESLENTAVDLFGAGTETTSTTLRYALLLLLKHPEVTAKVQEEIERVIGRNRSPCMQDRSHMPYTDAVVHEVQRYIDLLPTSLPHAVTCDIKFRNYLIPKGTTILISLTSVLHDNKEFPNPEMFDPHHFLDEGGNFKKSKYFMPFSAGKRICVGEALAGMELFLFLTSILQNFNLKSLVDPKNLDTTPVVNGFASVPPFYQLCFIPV

Turning to `CN(C)CCN(C)CCN(C)C.CN(C)CCN(C)CCN(C)C.O.O.O=C([O-])CCSSCCC(=O)[O-].[Cu+2].[Cu+2].[O-][Cl+3]([O-])([O-])[O-].[O-][Cl+3]([O-])([O-])[O-]` [Complex No. 6, [Cu2(μ-dtdp)(pmdien)2(H2O)2](ClO4)2], the IC50 on CYP2C9 is 12.26 ± 0.11 µM; at CYP2C8 it was 3.4 ± 0.1 µM; against CYP2B6, 13.3 ± 0.54 µM; against CYP2A6, 25.13 ± 0.13 µM. The “MIC S. aureus” value in the data set with S. aureus is 8.44 µg/mL. Further, the “MIC E. coli” value with E. coli was 16.88 µg/mL. Further, in the data set with P. aeruginosa, the “MIC P. aeruginosa” value was 1.05 µg/mL.

As for `CN(C)CCN(C)CCN(C)C.CN(C)CCN(C)CCN(C)C.O.O.O=C([O-])/C=C/C(=O)[O-].[Cu+2].[Cu+2].[O-][Cl+3]([O-])([O-])[O-].[O-][Cl+3]([O-])([O-])[O-]` [Complex No. 5, [Cu2(μ-fu)(pmdien)2(H2O)2](ClO4)2], the IC50 is 12.59 ± 0.06 µM at CYP2C9, 3.66 ± 0.19 µM on CYP2C8, 24.8 ± 0.33 µM on CYP2B6 and 24.9 ± 0.25 µM at CYP2A6. The “MIC S. aureus” value with S. aureus is 1.05 µg/mL. Further, the “MIC E. coli” value in the data set on E. coli is 8.44 µg/mL. The “MIC P. aeruginosa” value in the data set with P. aeruginosa is 2.11 µg/mL.

Usually IC50 stands for the point on the concentration scale where inhibition reaches its midpoint.

Values taken from PMC11434749, “In Vitro Interaction of Binuclear Copper Complexes with Liver Drug-Metabolizing Cytochromes P450” (Pharmaceuticals, 2024).
